The numbers were not newly measured in patent publication US20110183005A1, “PROCESS FOR THE PREPARATION OF CO[…] OF STABILIZED HYPOBROMITES” (BROMINE COMPOUNDS LTD., priority 2002, published 2011), which cites them from elsewhere.

The conditions of this data set: at 25° C.

Turning to `OBr` [Hypobromous acid], the pK is recorded as 8.8.
